Consider 1 compound from patent publication US9783510B2, “Small molecule mediated transcriptional induction of E-cadherin” (Vanderbilt University, priority 2014, dated 2017).

Where only a bound is given, the exact number is not on record here.

The test system of data set [1] is E-cadherin protein in SW620inv cells. In words: Quantitative Western blot of E-cadherin protein, SW620inv time course. Type of data set: cell-based. The conditions noted are these: maintained level, 12, 18 and 24 hour time-points. (A western blot detects proteins with antibodies after separation by electrophoresis.)
Data set [2] relates to human E-cadherin promoter. In words: E-cadherin promoter luciferase reporter assay in SW620inv cells. The conditions noted are these: 10 μM, 24 hours. Type of data set: cell-based. The method, then:
The 1.4 kbp E-cadherin promoter plasmid (E1) and deletion plasmids E2-E8 were a gift from Dr. Eric Fearon at The University of Michigan (Liu, Y. N., et al. (2005) Onocogene 24, 8277-8290). All plasmid constructs were sequenced at the Vanderbilt University Sequencing Core to confirm the E-cadherin promoter fragments using the PCR primers listed in Table I and herein below. Luciferase assays were performed as previously described (Freeman, T. J., et al. (2012) Gastroenterology 142, 562-572).
Compound 13 (259Y) induces>20-fold increases in reporter activation driven by the 1130 bp promoter region in an assay in which an exogenous firefly luciferase gene is driven by defined regions of the human E-cadherin promoter. This region includes consensus binding sequences for several known transcription factors, including AML1, P300, Snail and SP1 (Liu, Y. N., et al. (2005) Oncogene 24, 8277-8290). […]
Referring to FIG. 5, a diagram of the 8 E-cadherin promoter reporter plasmids (full length and truncations) utilized to determine promoter elements critical for promoter activity is shown. […] Fold change is Log2^−ΔΔCp of the normalized fluorescence signal relative to the mean of the DMSO treated group. Statistical significance was calculated using a two-way ANOVA (Holm-Sidak method): ****=p<0.00005, ***=p<0.0005, **=p<0.005, *=p<0.05. […]
A general note: A reporter such as luciferase makes a cellular process visible.

The nature of data set [3]: Protein binding in vitro, human samples. In kind it is in vitro ADME. The method, then:
(§1) The potency and efficacy of Compound 13 was evaluated in vivo. For these studies, the pharmacokinetics of Compound 13 were first evaluated in vitro and in vivo (FIG. 14).

Data set [4] in a line: Intrinsic clearance in vitro, mouse. Type of data set: in vitro ADME. The method, then: as §1
A further data set can be described thus: Clearance in vitro, rat. In kind it is in vitro ADME. The method, then: as §1

Take `O=C(NCCCNC(=O)c1cccnc1O)c1cc(-c2ccccc2)on1` [Compound 13, N-(3-(2-hydroxynicotinamido)propyl)-5-phenylisoxazole-3-carboxamide]: the “E-cadherin protein levels relative to control vehicle treated cells” value in data set [1] is on record as > 10 ×. Further, the reporter activation in data set [2] (1130 bp promoter region) was > 20 fold. For the same compound, the “reporter activation above control after serial deletion of distal promoter regions” value in data set [2] (deletion incl. −492 bp to −330 bp) is reported as > 10 ×. For the same compound, the protein binding entry in data set [3] is on record as “relatively high”. Besides, the intrinsic clearance result in data set [4] was “high”. Further, in “Clearance in vitro, rat”, the clearance entry was “very moderate”.
